Test results from PubChem BioAssay AID1259407 (Chemical Carcinogenesis Research Information System (CCRIS), 2018).
Calls of active or inactive are those of the source. How the calls were made is not given here.

Test system: CCRIS mutagenicity, Ames/micronucleus/aberration tests
Experiment: CCRIS mutagenicity studies
[1] = Test System: AMES SALMONELLA TYPHIMURIUM, Strain/Indicator: TA98, Metabolic Activation: NONE, Method: STANDARD PLATE
[2] = Test System: AMES SALMONELLA TYPHIMURIUM, Strain/Indicator: TA100, Metabolic Activation: NONE, Method: STANDARD PLATE
[3] = Test System: AMES SALMONELLA TYPHIMURIUM, Strain/Indicator: TA1537, Metabolic Activation: NONE, Method: STANDARD PLATE
[4] = Test System: AMES SALMONELLA TYPHIMURIUM, Strain/Indicator: TA98, Metabolic Activation: NONE, Method: PREINCUBATION

CC(=O)OC[C@@]1(O)CC23CC[C@@H]4c5ccoc5CC[C@@]4(C)[C@@H]2CC[C@@H]1C3
mutagenic call (Test System: AMES SALMONELLA TYPHIMURIUM, Strain/Indicator: TM677, Metabolic Activation: NONE, Method: PREINCUBATION): inactive; negative | mutagenic call (Test System: AMES SALMONELLA TYPHIMURIUM, Strain/Indicator: TM677, Metabolic Activation: RAT, LIVER, S-9, AROCLOR 1254, Method: PREINCUBATION): inactive; negative

FC(Cl)C(F)(F)C(F)(F)Cl (stereo not given)
mutagenic call [1]: inactive; negative | mutagenic call (Test System: AMES SALMONELLA TYPHIMURIUM, Strain/Indicator: TA98, Metabolic Activation: RAT LIVER S-9, PHENOBARBITAL, 5,6-BENZOFLAVONE, Method: STANDARD PLATE): inactive; negative | mutagenic call [2]: inactive; negative | mutagenic call (Test System: AMES SALMONELLA TYPHIMURIUM, Strain/Indicator: TA100, Metabolic Activation: RAT LIVER S-9, PHENOBARBITAL, 5,6-BENZOFLAVONE, Method: STANDARD PLATE): inactive; negative | mutagenic call (Test System: AMES SALMONELLA TYPHIMURIUM, Strain/Indicator: TA1535, Metabolic Activation: NONE, Method: STANDARD PLATE): inactive; negative | mutagenic call (Test System: AMES SALMONELLA TYPHIMURIUM, Strain/Indicator: TA1535, Metabolic Activation: RAT LIVER S-9, PHENOBARBITAL, 5,6-BENZOFLAVONE, Method: STANDARD PLATE): inactive; negative | mutagenic call [3]: inactive; negative | mutagenic call (Test System: AMES SALMONELLA TYPHIMURIUM, Strain/Indicator: TA1537, Metabolic Activation: RAT LIVER S-9, PHENOBARBITAL, 5,6-BENZOFLAVONE, Method: STANDARD PLATE): inactive; negative | mutagenic call (Test System: ESCHERICHIA COLI, Strain/Indicator: WP2 UVR A, Metabolic Activation: NONE, Method: STANDARD PLATE): inactive; negative | mutagenic call (Test System: ESCHERICHIA COLI, Strain/Indicator: WP2 UVR A, Metabolic Activation: RAT LIVER S-9, PHENOBARBITAL, 5,6-BENZOFLAVONE, Method: STANDARD PLATE): inactive; negative | mutagenic call (Test System: UDS RAT HEPATOCYTES IN VIVO, Strain/Indicator: THYMIDINE INCORPORATION, Metabolic Activation: NONE, Method: INHALATION (6HR, NOSE-ONLY, 2-OR 16-HR HARVEST)/AUTORADIOGRAPHY): inactive; negative

CS(=O)(=O)Nc1ccc(Nc2c3ccccc3nc3ccc(N=[N+]=[N-])cc23)cc1
mutagenic call [3]: active; positive

N#Cc1cccc2c([N+](=O)[O-])cccc12
mutagenic call [2]: active; positive | mutagenic call (Test System: AMES SALMONELLA TYPHIMURIUM, Strain/Indicator: TA100, Metabolic Activation: S-9 MIX, Method: STANDARD PLATE): active; positive

CC(C)(C)OC(=O)C=Cc1ccc([N+](=O)[O-])o1
mutagenic call [4]: active; positive

O=NN1CCSC1CO (stereo not given)
mutagenic call [4]: inactive; negative | mutagenic call [1]: inactive; negative | mutagenic call (Test System: AMES SALMONELLA TYPHIMURIUM, Strain/Indicator: TA98, Metabolic Activation: RAT, LIVER, S-9, AROCLOR 1254, Method: PREINCUBATION): inactive; negative | mutagenic call (Test System: AMES SALMONELLA TYPHIMURIUM, Strain/Indicator: TA98, Metabolic Activation: RAT, LIVER, S-9, AROCLOR 1254, Method: STANDARD PLATE): inactive; negative | mutagenic call (Test System: AMES SALMONELLA TYPHIMURIUM, Strain/Indicator: TA100, Metabolic Activation: NONE, Method: PREINCUBATION): active; positive | mutagenic call [2]: active; positive | mutagenic call (Test System: AMES SALMONELLA TYPHIMURIUM, Strain/Indicator: TA100, Metabolic Activation: RAT, LIVER, S-9, AROCLOR 1254, Method: PREINCUBATION): active; positive | mutagenic call (Test System: AMES SALMONELLA TYPHIMURIUM, Strain/Indicator: TA100, Metabolic Activation: RAT, LIVER, S-9, AROCLOR 1254, Method: STANDARD PLATE): active; positive
